Counter-ions that a name gives are not always drawn.
How the values were obtained:
[1] = target: T1, proMMP9(20-445;ΔFnII) (SEQ ID NO:6) (Homo sapiens, UniProt P14780, DEL216-390); test: ThermoFluor binding assay with proMMP9(20-445;ΔFnII); details: pH 7.0
T1 construct: start methionine (N); made in house; host or cells: E. coli BL21(DE3) RIL
T1 sequence (P14780 with tags, fused parts or gaps DEL216-390): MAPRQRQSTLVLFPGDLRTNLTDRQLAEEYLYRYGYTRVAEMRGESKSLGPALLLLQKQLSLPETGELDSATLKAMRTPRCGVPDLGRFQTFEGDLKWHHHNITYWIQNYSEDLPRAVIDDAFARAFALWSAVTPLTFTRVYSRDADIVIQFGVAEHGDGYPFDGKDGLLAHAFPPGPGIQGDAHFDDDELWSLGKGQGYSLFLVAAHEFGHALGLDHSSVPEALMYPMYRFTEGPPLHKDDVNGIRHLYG
Procedure: (§1) The ThermoFluor® (TF) assay is a 384-well plate-based binding assay that measures thermal stability of proteins (Biomol Screen 2001, 6, 429-40; Biochemistry 2005, 44, 5258-66). The experiments were carried out using instruments available from Johnson & Johnson Pharmaceutical Research & Development, LLC. TF dye used in all experiments was […] (1,8-ANS) (Invitrogen: A-47).
(§2) Compounds were arranged in a pre-dispensed plate (Greiner Bio-one: 781280), wherein compounds were serially diluted in 100% DMSO across 11 columns within a series. Columns 12 and 24 were used as DMSO reference and contained no compound. For multiple compound concentration-response experiments, the compound aliquots ([…]) were robotically predispensed directly into black 384-well polypropylene PCR microplates (Abgene: TF-0384/k) using a Cartesian Hummingbird liquid handler (DigiLab, Holliston, Mass.). Following compound dispense, protein and dye solutions were added to achieve the final assay volume of 3 μL. The assay solutions were overlayed with 1 μL of silicone oil (Fluka, type DC 200: 85411) to prevent evaporation.
(§3) Assay plates were robotically loaded onto a thermostatically controlled PCR-type thermal block and then heated from 40 to 90° C. at a ramp-rate of 1° C./min for all experiments. Fluorescence was measured by continuous illumination with UV light (Hamamatsu LC6) supplied via fiber optics and filtered through a band-pass filter (380-400 nm; >6 OD cutoff). Fluorescence emission of the entire 384-well plate was detected by measuring light intensity using a CCD camera (Sensys, Roper Scientific) filtered to detect 500±25 nm, resulting in simultaneous and independent readings of all 384 wells. A single image with 20-sec exposure time was collected at each temperature, and the sum of the pixel intensity in a given area of the assay plate was recorded vs temperature and fit to standard equations to yield the Tm (J Biomol Screen 2001, 6, 429-40).
(§4) Thermodynamic parameters necessary for fitting compound binding for each proMMP were estimated by differential scanning calorimetry (DSC) and from ThermoFluor® data. The heat capacity of unfolding for each protein was estimated from the molecular weight and from ThermoFluor® dosing data.
The protein sample preparations included a desalting buffer exchange step via a PD-10 gravity column (GE Healthcare). The desalting buffer exchange was performed prior to diluting the protein to the final assay concentration of 2.8 μM proMMP9(20-445;ΔFnII) (SEQ ID NO:6). The concentration of proMMP9(20-445;ΔFnII) (SEQ ID NO:6) was determined spectrophotometrically based on a calculated extinction coefficient of ε280=39880 M^−cm^−1, a calculated molecular weight of 28.2 kDa, and calculated pI of 5.5. ThermoFluor® reference conditions were define as follows: 80 μg/mL (2.8 μM) proMMP9(20-445;ΔFnII) (SEQ ID NO:6), 50 μM 1,8-ANS, pH 7.0 Buffer (50 mM HEPES pH 7.0, 100 mM NaCl, 0.001% Tween-20, 2.5 mM MgCl2, 300 μM CaCl2). The thermodynamic parameters for proMMP9(20-445;ΔFnII) (SEQ ID NO:6) are as follows: Tm (° C.)=72 (+/−0.1), ΔUH(Tm) (cal mol^−1)=160000(+/−5000), ΔUS(Tm) (cal mol^−1 K^−1)=434, ΔUCp (cal mol^−1 K^−)=2400.

[2] = target: T2, proMMP9(67-444;ΔFnII) (SEQ ID NO:5) (Homo sapiens, UniProt P14780, DEL216-390); test: ThermoFluor binding assay with proMMP9(67-444;ΔFnII); details: pH 7.0
T2 construct: start methionine (N); made in house; host or cells: E. coli BL21(DE3) RIL
T2 sequence (P14780 with tags, fused parts or gaps DEL216-390): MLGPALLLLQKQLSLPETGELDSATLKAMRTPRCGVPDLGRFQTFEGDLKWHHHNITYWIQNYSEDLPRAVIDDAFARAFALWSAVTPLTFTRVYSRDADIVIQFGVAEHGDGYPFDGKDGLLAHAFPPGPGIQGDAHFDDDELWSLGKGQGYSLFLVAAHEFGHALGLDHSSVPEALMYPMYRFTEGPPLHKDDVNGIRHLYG
Procedure: as §1, §2, §3, §4
The protein sample preparations had to include a desalting buffer exchange step via a PD-10 gravity column (GE Healthcare). The desalting buffer exchange was performed prior to diluting the protein to the final assay concentration of 3.5 μM proMMP9(67-444;ΔFnII) (SEQ ID NO:5). The concentration of proMMP9(67-444;ΔFnII) (SEQ ID NO:5) was determined spectrophotometrically based on a calculated extinction coefficient of ε280=33900 M^−1cm^−1, a calculated molecular weight of 22.6 kDa, and calculated pI of 5.20. ThermoFluor® reference conditions were defined as follows: 80 μg/mL (3.5 μM) proMMP9(67-444;ΔFnII) (SEQ ID NO:5), 50 μM 1,8-ANS, pH 7.0 Buffer (50 mM HEPES pH 7.0, 100 mM NaCl, 0.001% Tween-20, 2.5 mM MgCl2, 300 μM CaCl2). The thermodynamic parameters for proMMP9(67-444;ΔFnII) (SEQ ID NO:5) are as follows: Tm (° C.)=63 (+/−0.1), ΔUH(Tm) (cal mol^−1)=105000(+/−5000), ΔUS(Tm) (cal mol^−1 K^−1)=[…], ΔUCp (cal mol^−1 K^−1)=2000.

[3] = target: proMMP13(1-268) (SEQ ID NO:7) (Homo sapiens, UniProt P45452); test: ThermoFluor binding assay with proMMP13(1-268); set-up: 6xHis (C); made in house; details: pH 7.0
Procedure: as §1, §2, §3, §4
The proMMP13(1-268) (SEQ ID NO:7) protein sample preparations included a desalting buffer exchange step via a PD-10 gravity column (GE Healthcare). The desalting buffer exchange was performed prior to diluting the protein to the final assay concentration of 3.5 μM. The concentration of proMMP13(1-268) (SEQ ID NO:7) was estimated spectrophotometrically based on a calculated extinction coefficient of ε280=37000 M^−1cm^−1, a calculated molecular weight of 30.8 kDa, and calculated pI of 5.33. ThermoFluor® reference conditions were defined as follows: 100 μg/mL proMMP13(1-268) (SEQ ID NO:7), 25 μM 1,8-ANS, pH 7.0 Buffer (50 mM HEPES pH 7.0, 100 mM NaCl, 0.001% Tween-20, 2.5 mM MgCl2, 300 μM CaCl2). The thermodynamic parameters for proMMP13(1-268) (SEQ ID NO:7) are as follows: Tm (° C.)=67 (+/−0.1), ΔUH(Tm) (cal mol^−1)=107000(+/−5000), ΔUS(Tm) (cal mol^−1 K^−1)=318, ΔUCp (cal mol^−1 K^−1)=2600.

[4] = target: T3, full-length proMMP9(1-707) (SEQ ID NO:1) (Homo sapiens, UniProt P14780, R574P); test: proMMP9/MMP3 P126 Activation Assay; type: biochemical; details: 20 nM proMMP9, 20 nM MMP3, 80 min 37° C.
T3 construct: made in house; host or cells: HEK293 (proMMP9, secreted); E. coli (MMP3)
Procedure: The reaction volume was 50 μL. […] Reactivity of residual MMP3 towards P-126 substrate was minimal under these conditions.

T3 sequence (P14780 20-707 R574P): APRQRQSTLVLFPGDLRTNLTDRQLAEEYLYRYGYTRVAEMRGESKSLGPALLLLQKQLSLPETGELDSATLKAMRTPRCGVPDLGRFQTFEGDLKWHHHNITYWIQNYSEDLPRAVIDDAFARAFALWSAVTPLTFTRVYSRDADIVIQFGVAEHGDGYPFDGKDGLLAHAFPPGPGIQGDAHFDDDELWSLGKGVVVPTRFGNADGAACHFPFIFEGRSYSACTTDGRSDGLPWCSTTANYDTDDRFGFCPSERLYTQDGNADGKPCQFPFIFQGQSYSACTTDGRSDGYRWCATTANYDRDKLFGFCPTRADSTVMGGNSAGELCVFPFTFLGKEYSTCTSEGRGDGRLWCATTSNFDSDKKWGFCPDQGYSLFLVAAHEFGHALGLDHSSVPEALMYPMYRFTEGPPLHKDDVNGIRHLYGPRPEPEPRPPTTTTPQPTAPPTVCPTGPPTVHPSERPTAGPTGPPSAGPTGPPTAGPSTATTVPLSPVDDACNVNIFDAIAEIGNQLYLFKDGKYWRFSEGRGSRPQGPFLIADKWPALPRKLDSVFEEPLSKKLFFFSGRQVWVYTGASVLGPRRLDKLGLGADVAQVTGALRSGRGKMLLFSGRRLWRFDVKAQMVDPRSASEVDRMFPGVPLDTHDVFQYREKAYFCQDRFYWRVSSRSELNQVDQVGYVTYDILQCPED

SMILES	Kd [1]	Kd [2]	Kd [3]	IC50 [4]
CCOc1ccc(-c2ncco2)cc1Nc1nc(-c2sc(NC(C)=O)nc2C)cs1 [Example 78, N-[2-(2-Ethoxy-5-oxazol-2-yl-phenylamino)-4′-methyl-[4,5′]bithiazolyl-2′-yl]-acetamide.TFA]	15 µM	480 nM	2900 nM	–
COc1cc(C)c(C(N)=O)cc1Nc1nc(-c2sc(N3CCN(C)CC3)nc2C)cs1 [Example 37, 4-Methoxy-2-methyl-5-[4′-methyl-2′-(4-methyl-piperazin-1-yl)-[4,5]bithiazolyl-2-ylamino]-benzamide.HCl]	0.57 µM	7200 nM	–	3.6 µM
COc1ccc(-c2ccc(C(C)=O)s2)cc1Nc1nc(-c2sc(C)nc2C)cs1 [Example 134, 1-{5-[3-(2′,4′-Dimethyl-[4,5′]bithiazolyl-2-ylamino)-4-methoxy-phenyl]-thiophen-2-yl}-ethanone]	18 µM	> 95000 nM	–	> 20 µM
COc1cc(Nc2nc(-c3sc(C)nc3C)cs2)c2ncccc2c1 [Example 41, (2′,4′-Dimethyl-[4,5′]bithiazolyl-2-yl)-(6-methoxy-quinolin-8-yl)-amine.TFA]	84 µM	61000 nM	–	~13 µM
Cc1nc(C)c(-c2csc(Nc3cc(C(N)=O)ccc3OC(C)(C)C)n2)s1 [Example 12, 4-tert-Butoxy-3-(2′,4′-dimethyl-[4,5′]bithiazolyl-2-ylamino)-benzamide]	1.9 µM	15000 nM	–	2.5 µM
Cc1nc(C)c(-c2nc(Nc3cc(S(N)(=O)=O)ccc3OC(C)C)sc2C)s1 [Example 152, 4-Isopropoxy-3-((2′,4′,5-trimethyl-[4,5′-bithiazol]-2-yl)amino)benzenesulfonamide]	5.7 µM	6400 nM	–	4.7 µM
Cc1nc(C)c(-c2csc(Nc3cc(C#N)ccc3OC(C)C)n2)s1 [Example 72, 3-(2′,4′-Dimethyl-[4,5′]bithiazolyl-2-ylamino)-4-isopropoxy-benzonitrile.HBr]	8.6 µM	1200 nM	–	1 µM
COc1ccc(NC(C)=O)cc1Nc1nc(-c2sc(N)nc2C)cs1 [Example 84, N-[3-(2′-Amino-4′-methyl-[4,5′]bithiazolyl-2-ylamino)-4-methoxy-phenyl]-acetamide.TFA]	19 µM	9700 nM	–	9.8 µM
CCC(C)Oc1ccc(C(N)=O)cc1Nc1nc(-c2sc(C)nc2C)cs1 (racemic) [Example 14, (±)-4-sec-Butoxy-3-(2′,4′-dimethyl-[4,5′]bithiazolyl-2-ylamino)-benzamide.TFA]	0.57 µM	7000 nM	–	4.7 µM
COc1ccc(-c2c(C)noc2C)cc1Nc1nc(-c2sc(C)nc2C)cs1 [Example 135, (2′,4′-Dimethyl-[4,5′]bithiazolyl-2-yl)-[5-(3,5-dimethyl-isoxazol-4-yl)-2-methoxy-phenyl]-amine]	31 µM	40000 nM	–	~5 µM
CC(=O)Nc1nc(C)c(-c2csc(Nc3cc(C#N)ccc3OC(C)C)n2)s1 [Example 73, N-[2-(5-Cyano-2-isopropoxy-phenylamino)-4′-methyl-[4,5′]bithiazolyl-2′-yl]-acetamide.HBr]	4.3 µM	330 nM	–	0.52 µM
Cc1nc(Nc2ccncc2)sc1-c1csc(Nc2cc(C(N)=O)ccc2OC(C)C)n1 [Example 92, 4-Isopropoxy-3-[4′-methyl-2′-(pyridin-4-ylamino)-[4,5′]bithiazolyl-2-ylamino]-benzamide.TFA]	0.045 µM	220 nM	–	0.34 µM
COc1ccc(S(N)(=O)=O)cc1Nc1nc(-c2sc(NC(C)=O)nc2C)cs1 [Example 53, N-[2-(2-Methoxy-5-sulfamoyl-phenylamino)-4′-methyl-[4,5′]bithiazolyl-2′-yl]-acetamide.HBr]	1.5 µM	1200 nM	–	1.9 µM
COc1ccc([N+](=O)[O-])cc1Nc1nc(-c2sc(N)nc2C)cs1 [Example 67, N^2-(2-Methoxy-5-nitro-phenyl)-4′-methyl-[4,5′]bithiazolyl-2,2′-diamine.HBr]	0.56 µM	87 nM	–	0.45 µM
COc1ccc(C(=O)NCc2ccccc2)cc1Nc1nc(-c2sc(N)nc2C)cs1 [Example 56, 3-(2′-Amino-4′-methyl-[4,5′]bithiazolyl-2-ylamino)-N-benzyl-4-methoxy-benzamide.TFA]	1.3 µM	2300 nM	–	12 µM
Cc1nc(-c2cnccn2)sc1-c1csc(Nc2cc(C(N)=O)ccc2OC(C)C)n1 [Example 145]	0.13 µM	650 nM	–	0.78 µM

Source: patent US20120129842A1, “BISTHIAZOLE INHIBITORS OF PRO-MATRIX METALLOPROTEINASE ACTIVATION” (priority 2010, published 2012)
